Measured values: a melting point compilation (Tetko et al.)

| melting point | SMILES |
| --- | --- |
| 95 to 97 °C | CC(C)Nc1cccc(O)c1 |
| 77 to 79 °C | C#CCOc1ccccc1C#N |
| 175 to 177 °C | CC1=NN(Cc2ccccc2)C(=O)C1 |
| 99 to 101 °C | OCc1nnc(Cc2ccccc2Br)[nH]1 |
| 156 to 158 °C | COCCn1nc(C(=O)O)ccc1=O |
| 170 to 172 °C | O=C(O)c1nccnc1C(=O)NCc1ccc(F)cc1 |
| 22 to 24 °C | CC(C)(C)OC(=O)NCCCN |
| 219 to 221 °C | O=C1CCCc2cc(O)ccc2N1 |
| 195 to 197 °C | Cc1cc(NS(=O)(=O)c2cccc(C(=O)O)c2)no1 |
| 257 to 259 °C | COc1cc(C(=O)O)ccc1OCC(N)=O |
| 211 to 213 °C | Cc1cc(NC(=O)c2cccc(F)c2)sc1C(=O)O |
| 139 to 141 °C | O=c1n(CCCl)nc2ccccn12 |
| 66 to 68 °C | O=C(O)C1CCCN(C(=O)N2CCc3sccc3C2)C1 (configuration not stated) |
| 123 to 125 °C | O=Cc1cc(-n2ccnc2)cs1 |
| 96 to 98 °C | CC1CCNc2ccccc2N1 (configuration not stated) |
| 59 to 61 °C | Cc1ccc(C#N)c(Sc2ccccc2)c1 |
| 109 to 111 °C | ON=Cc1ccc(OCc2ccccc2)cc1 |
| 175 to 177 °C | COC(=O)c1ccncc1C(=O)O |
| 82 to 84 °C | NNC(=O)CC1CCCC1 |
| 202 to 204 °C | Nn1c(S)nnc1-c1ccc(Br)cc1 |
| 130 to 132 °C | O=C(O)CNC(=O)c1ccc(S(=O)(=O)Cl)cc1 |
| 220 to 230 °C | O=C(O)c1ccc(-n2cnnn2)cc1 |
| 92 to 94 °C | CC(=O)NCCOc1ccc(N)cc1 |
| 127 to 129 °C | Cc1ccccc1-n1c(C)cc(C(=O)O)c1C |

| melting point | SMILES |
| --- | --- |
| 104 to 106 °C | NCc1cccc(CN2CCCC(C(N)=O)C2)c1 (configuration not stated) |
| 163 to 165 °C | O=C(O)c1ccc(CN2C(=O)C=CC2=O)cc1 |
| 55 to 57 °C | COC(=O)c1ccncc1C(=O)OC |
| 76 to 78 °C | CCOC(=O)C(=O)CC(=O)c1cc(Cl)ccc1Cl |
| 84 to 86 °C | O=C(O)C1(O)CCCC1 |
| 99 to 101 °C | COc1ccc(C(=O)CBr)cc1Cl |
| 89 to 91 °C | Cn1ncc2c1CCCC2=O |
| 68 to 70 °C | CCOC(=O)N1CCCC(C(=O)O)C1 (configuration not stated) |
| 125 to 127 °C | O=C(O)c1cccc(C(=O)N2CCCC2)n1 |
| 335 to 337 °C | O=C(O)c1cc(/C=C/c2cccnc2)nc2ccc(Br)cc12 |
| 172 to 174 °C | Cc1cc(=O)[nH]c(-c2ncccn2)n1 |
| 136 to 138 °C | CC(C)(C)c1ccc(S(N)(=O)=O)cc1 |
| 168 to 170 °C | Cc1ccc(NC(=O)CC(N)=NO)cc1 |
| 150 to 152 °C | O=C(O)CCNS(=O)(=O)c1ccc([N+](=O)[O-])cc1 |
| 163 to 165 °C | O=C(O)CCS(=O)(=O)N1CCOCC1 |
| 199 to 201 °C | Cc1nc(O)ccc1Br |
| 200 to 202 °C | Cc1nc2ccccc2c2c(N)c3ccccc3n12 |
| 172 to 174 °C | NS(=O)(=O)c1ccc(Cl)c(NC(=O)CCl)c1 |
| 45 to 47 °C | CC(=O)c1c(O)cc(F)cc1F |
| 225 to 227 °C | CC(C)NS(=O)(=O)c1ccc(C(=O)O)cc1 |
| 115 to 119 °C | COc1ccccc1S(=O)(=O)Cl |
| 151 to 153 °C | Cc1ccc(N)cc1S(N)(=O)=O |
| 262 to 264 °C | COc1ccc(C(=O)O)cc1S(=O)(=O)N1CC(C)CC(C)C1 (configuration not stated) |
| 167 to 169 °C | Cc1ccc(S(=O)(=O)NC(C(=O)O)C(C)C)cc1 (configuration not stated) |

| melting point | SMILES |
| --- | --- |
| 179 to 181 °C | COc1cc(C(=O)O)cc(OC)c1OC(F)F |
| 165 to 167 °C | CN1CCc2ccc(C(=O)O)cc21 |
| 207 to 209 °C | O=C1CS/C(=C/C(=O)c2cccc(Cl)c2)N1 |
| 244 to 246 °C | O=C(O)CCCc1ccc2[nH]c(=O)[nH]c2c1 |
| 297 to 299 °C | NC(=O)c1cccnc1S |
| 153 to 155 °C | Nc1cc(Br)ccc1N1CCOCC1 |
| 146 to 148 °C | N#CCC(=O)c1cc2ccccc2o1 |
| 189 to 191 °C | COc1cc(=O)[nH]c(NC(=O)CCl)n1 |
| 53 to 55 °C | Cc1ccc(CC(=O)Cc2ccc(C)cc2)cc1 |
| 84 to 86 °C | Nc1noc(C2CC2)n1 |
| 76 to 78 °C | CC(C)(C)OC(=O)N[C@@H]1CCCC[C@H]1N (relative stereo) |
| 105 to 107 °C | CCc1ccc2nc(N)sc2c1 |
| 74 to 76 °C | Nc1ccccc1CSc1ccc(C(F)(F)F)cn1 |
| 149 to 151 °C | O=C(O)c1nnn(-c2cccc(F)c2)c1C1CC1 |
| 231 to 233 °C | O=S(=O)(c1cccc(-c2nnc(S)n2Cc2ccc(F)cc2)c1)N1CCOCC1 |
| 73 to 75 °C | O=Cc1cc(Br)c2c(c1)OCCCO2 |
| 244 to 246 °C | Oc1cnnc(S)n1 |
| 152 to 154 °C | O=C(O)C1CCN(c2ccc(Cl)cn2)CC1 |
| 181 to 183 °C | O=Cc1sc(N2CCOCC2)nc1-c1ccccc1 |
| 121 to 123 °C | Cn1cc(CC(=O)O)cn1 |
| 189 to 191 °C | O=C(O)C(c1ccccc1F)N1CCOCC1 (configuration not stated) |
| 120 to 122 °C | Cc1n[nH]c(N)c1-c1ccc2c(c1)OCCO2 |
| 120 to 122 °C | O=C(O)c1cc(Br)ccc1I |
| 164 to 166 °C | CC(=O)Nc1cc2c(cc1C)OCO2 |

| melting point | SMILES |
| --- | --- |
| 64 to 66 °C | COc1cccc(COc2cccc(Cl)c2C=O)c1 |
| 154 to 156 °C | Cc1ccc(C(=O)Nc2ccccc2N)cc1 |
| 72 to 74 °C | O=C1C(Br)CCCN1c1ccc(OC(F)F)cc1 (configuration not stated) |
| 70 to 74 °C | CN(CCC#N)c1ccc(C=O)cc1 |
| 95 to 97 °C | COc1ccc(S(=O)(=O)Cl)c2ccccc12 |
| 76 to 78 °C | Brc1ccc(NCc2ccccn2)cc1 |
| 64 to 66 °C | CCCN(C(=O)c1ccccc1N)C(C)C |
| 213 to 215 °C | Nc1ncn(-c2ccncc2)n1 |
| 130 to 132 °C | Nc1cc(Cl)ccc1-n1cnnn1 |
| 101 to 103 °C | CCc1nc(C(=O)O)co1 |
| 105 to 107 °C | O=C(O)CCNC(=O)C1CCC1 |
| 227 to 229 °C | O=C(O)c1nn(-c2ccc(F)cc2)cc1O |
| 168 to 170 °C | CCOC(=O)c1sc2nc(CCl)nc(Cl)c2c1C |
| 74 to 76 °C | O=C(O)CC1OCCc2ccccc21 (configuration not stated) |
| 181 to 183 °C | Cc1c(Cl)cc(S(N)(=O)=O)cc1[N+](=O)[O-] |
| 68 to 70 °C | O=Cc1ccc(-n2ccc(C(F)(F)F)n2)cc1 |
| 73 to 75 °C | c1ccc(COc2ccc3ncccc3c2)cc1 |
| 192 to 194 °C | Cc1cc(N)c(C(N)=O)cc1F |
| 218 to 220 °C | CSc1cc(C(=O)O)ccn1 |
| 124 to 126 °C | Cc1ccc(N2CCCC2)c(C(=O)O)c1 |
| 111 to 113 °C | O=C(O)CC=Cc1ccc(F)cc1 |
| 284 to 286 °C | Nc1cc(=O)[nH]c(=O)n1Cc1ccccc1 |
| 145 to 147 °C | O=C(O)CCOc1ccc(Br)cc1 |
| 192 to 194 °C | COc1ccc(/C=C/C(=O)O)c(OC)c1 |

| melting point | SMILES |
| --- | --- |
| 167 to 169 °C | Cc1cc(F)c(C(=O)O)cc1F |
| 141 to 143 °C | COc1cc(I)c(Cl)cc1C(=O)O |
| 132 to 134 °C | Cc1cc(C(=O)O)c(C)nn1 |
| 88 to 90 °C | COc1ccc(-c2cc(CBr)on2)cc1 |
| 94 to 96 °C | Cc1ccc(NCCC(N)=S)cc1 |
| 64 to 66 °C | CN1CCCc2ccc(S(=O)(=O)Cl)cc21 |
| 103 to 105 °C | Cc1coc(C=CC(=O)O)n1 |
| 259 to 261 °C | Nc1nnc(-c2ccc([N+](=O)[O-])o2)o1 |
| 202 to 204 °C | COc1ccc(S(N)(=O)=O)c(C)c1C |
| 154 to 156 °C | O=[N+]([O-])c1ccc(-c2ncc(CO)o2)cc1 |
| 75 to 77 °C | CS(=O)(=O)c1ccccc1NN |
| 123 to 125 °C | CC(c1ccc(Cl)cc1Cl)S(N)(=O)=O (configuration not stated) |
| 119 to 121 °C | COC(=O)C1CNNC(=O)C1 (configuration not stated) |
| 69 to 71 °C | CC(C)(C)c1cc(N)n(C(C)(C)C)n1 |
| 76 to 78 °C | CNC1CCCN(c2ccccc2)C1=O (configuration not stated) |
| 133 to 135 °C | COc1cc(C=O)c(-c2ccccc2)cc1OC |
| 59 to 61 °C | COC(=O)c1cc(Br)cc(S(=O)(=O)Cl)c1 |
| 181 to 183 °C | Cc1cc(C(=O)O)c(Br)s1 |
| 117 to 119 °C | Nc1ncccc1OCC1CCCCC1 |
| 111 to 113 °C | CNC(=O)CCC(F)(F)F |
| 246 to 248 °C | COc1ccc(-c2cnnc(N)n2)cc1 |
| 127 to 129 °C | Sc1nnnn1C1CC1 |
| 129 to 131 °C | NC(=O)c1ccccc1Oc1cccc(N)c1 |
| 257 to 259 °C | COc1ccc(C(=O)O)cc1S(=O)(=O)Nc1ccc(Br)cc1 |

| melting point | SMILES |
| --- | --- |
| 139 to 141 °C | CC(NC(=O)CC1CCCC1)C(=O)O (configuration not stated) |
| 198 to 200 °C | Nc1ccnc(C(=O)O)c1 |
| 194 to 196 °C | Cc1ncc(C=CC(=O)O)s1 |
| 134 to 136 °C | c1ccc(-c2noc(CSc3nnc(-c4ccncc4)o3)n2)cc1 |
| 158 to 160 °C | CC(Oc1ccc(C#N)cc1)C(=O)O (configuration not stated) |
| 129 to 131 °C | Nc1cc(F)ccc1S(N)(=O)=O |
| 66 to 68 °C | CC(C)CC(CCC(=O)O)C(=O)O (configuration not stated) |
| 133 to 135 °C | CCCC(NC(=O)Cc1ccccc1)C(=O)O (configuration not stated) |
| 128 to 130 °C | O=[N+]([O-])c1ccc(-c2nnc(CCl)o2)cc1 |
| 117 to 119 °C | C=CC(=O)Nc1ccc(OCC)c(OC)c1 |
| 106 to 108 °C | O=C(O)C1(c2ccccc2F)CC1 |
| 33 to 35 °C | Fc1ccc2oc(Cl)nc2c1 |
| 170 to 172 °C | O=C(O)c1cc2c(cc1O)CCCC2 |
| 229 to 231 °C | Cc1noc2ncc(C(=O)O)cc12 |
| 91 to 93 °C | CC(C(=O)O)c1ccc(S(C)(=O)=O)cc1 (configuration not stated) |
| 146 to 148 °C | O=Cc1cn(Cc2ccccc2)nc1-c1cc2ccccc2o1 |
| 208 to 210 °C | Cc1sc2ncnc(NN)c2c1C |
| 271 to 273 °C | Cc1ccc2c(Cl)c(C(=O)O)sc2c1 |
| 239 to 241 °C | CC(=O)c1cc(C(=O)O)ccc1O |
| 59 to 61 °C | NC1CCCCC1Nc1cnccn1 (configuration not stated) |
| 194 to 196 °C | Cc1sc2ncn(CCC(=O)O)c(=O)c2c1C |

| SMILES | melting point |
| --- | --- |
| O=[N+]([O-])C=Cc1ccc(F)cc1F | 55 to 57 °C |
| O=C(CCl)N1CCCC1 | 56 to 58 °C |
| CC(C)CNCC(O)c1ccccc1 (configuration not stated) | 61 to 63 °C |
| Cn1nccc1C1CCNCC1 | 66 to 68 °C |
| Cc1nnc(CCl)s1 | 76 to 78 °C |
| O=C(O)c1ccn(C2CCCC2)n1 | 108 to 110 °C |
